The results in this text go back to patent US5314932A, “Antifouling coating and method for using same” (priority 1993, dated 1994).

One data set concerns cyprid stage larvae. It counts as in vivo, acorn barnacle Balanus amphritrite Darwin. Particulars: for EC50 compared with TBT, digoxigenin, and digoxin: cyprid stage larvae settlement, comparison in words; for Cyprid Settlement (ED50): dose which prevents settlement of 50 percent of cyprid stage larvae (EC50), three-day old cyprids, 100 kDa-filtered seawater (approx. 35 ppt), 28° C., approx. 15 h light and 9 h darkness. Here is the method: (§1) Adult individuals of the acorn barnacle Balanus amphritrite Darwin were collected from the Duke University Marine Laboratory seawall in Beaufort, N.C. Collected specimens were crushed, and the nauplius stage larvae released therefrom were cultured to cyprid stage for cyprid-state assays according to the methods of Rittschof et al., J. Exp. Mar. Biol. Ecol. 82:131-146 (1984).
Settlement assays were performed as previously described by Rittschof et al., J. Chem. Ecol. 11:551-563 (1985). Three-day old cyprid larvae were added to Falcon 50×9 mm polystyrene petri dishes. Each dish contained 5 ml of 100 kDa-filtered seawater (approximately 35 ppt salinity). […] Doses were varied in an effort to determine inhibition levels. Dishes receiving no test compound served as negative controls. The number of replicate dishes used in each assay ranged from 2 to 4, depending on larval availability. The dishes were incubated at 28° C. under light for approximately 15 hours and in darkness for approximately 9 hours.
After incubation, the dishes were examined under a dissecting microscope to determine whether larvae were still alive. The larvae were then euthanized by the addition of several drops of 10 percent formalin. The numbers of attached and unattached larvae were then counted.
Settlement was calculated as the percentage of total larvae attached to the dish. Differences in the rate of settlement for test dishes versus controls were assessed for statistical significance through the use of a G test for independence described by Sokal et al., Biometry (Freeman & Co., San Francisco 1981).

In a further data set the test system is nauplius stage larvae. Briefly: Toxicity Assay for Nauplius Larvae (naupliar toxicity). Particulars: for Naupliar Toxicity (LD50): lethal dose killing 50 percent of naupliar stage larvae, 100 kDa-filtered seawater, 28° C., approx. 15 h light and 9 h darkness, 1440 min; for LD50 compared with TBT, digoxigenin, and digoxin: nauplius stage larvae, comparison with known antifouling agents. As for the experimental part: as §1
Toxicity assays were conducted by adding nauplius stage larvae to Falcon 50×9 mm polystyrene Petri dishes containing 5 ml of 100 kDa-filteredseawater. Experimental dishes received a dose of bufalin, cinobufatalin, TBT, digoxigenin, or digoxin. Doses receiving no test compound served as negative controls. The dishes were incubated at 28° C. under light for approximately 15 hours and in darkness for approximately 9 hours.
After incubation, the dishes were examined under a dissecting microscope to determine whether the larvae were alive or dead. […] The number of dead and living larvae was counted and recorded.
Data for toxicity assays performed on nauplius stage larvae is summarized in Table 1, which lists the lethal dose for each compound required to kill 50 percent of naupliar stage larvae in a sample (LD50).

Turning to `C[C@]12CC[C@H](O)C[C@H]1CC[C@@H]1[C@@H]2CC[C@]2(C)[C@@H](c3ccc(=O)oc3)CC[C@]12O` [Bufalin, 3,14-dihydroxybufa-20,22 dienolide], in the data set with cyprid stage larvae, the “EC50 compared with TBT, digoxigenin, and digoxin” value (“EC50 compared with TBT” below) was “much lower EC50 values than TBT, digoxigenin, and digoxin”; the “Cyprid Settlement (ED50)” value was found to be 19 ng/L. Also, in the data set with nauplius stage larvae, the “Naupliar Toxicity (LD50)” value was 27 ng/L; the “LD50 compared with TBT, digoxigenin, and digoxin” value (from here on “LD50 compared with TBT”) was “much lower LD50 values than known antifouling agents TBT, digoxigenin, and digoxin”.
For `CC(=O)O[C@H]1[C@H]2O[C@]23[C@@H]2CC[C@@H]4C[C@@H](O)CC[C@]4(C)[C@H]2CC[C@]3(C)[C@H]1c1ccc(=O)oc1` [Cinobufagin, 16-(acetyloxy)-14,15-epoxy-3 hydroxybufa-20,22-enolide], in the data set with cyprid stage larvae, the “EC50 compared with TBT” value was “much lower EC50 values than TBT, digoxigenin, and digoxin”; the “Cyprid Settlement (ED50)” value came to 162 ng/L. Also, in the data set on nauplius stage larvae, the “Naupliar Toxicity (LD50)” value amounted to 37 ng/L; the “LD50 compared with TBT” value is “much lower LD50 values than known antifouling agents TBT, digoxigenin, and digoxin”.
On to `CC(=O)O[C@H]1[C@H]2O[C@]23[C@@H]2CC[C@]4(O)C[C@@H](O)CC[C@]4(C)[C@H]2CC[C@]3(C)[C@H]1c1ccc(=O)oc1` [Cinobufotalin, 16-(acetyloxy)-14,15-epoxy-3,5dihydroxybufa-20,22-enolide], for which, in the data set on cyprid stage larvae, the “EC50 compared with TBT” value is “much lower EC50 values than TBT, digoxigenin, and digoxin”; the “Cyprid Settlement (ED50)” value was 2,600 ng/L. In addition, in the data set on nauplius stage larvae, the “Naupliar Toxicity (LD50)” value is 837 ng/L; the “LD50 compared with TBT” value was “much lower LD50 values than known antifouling agents TBT, digoxigenin, and digoxin”.
Turning to `CCC[CH2][Sn]([Cl])([CH2]CCC)[CH2]CCC` [TBT Chloride, tri-n-butyl tin chloride, reference compound], the “Naupliar Toxicity (LD50)” value with nauplius stage larvae is listed as ~3,400 ng/L.
With `C[C@]12CC[C@H](O)C[C@H]1CC[C@@H]1[C@@H]2C[C@@H](O)[C@]2(C)[C@@H](C3=CC(=O)OC3)CC[C@]12O` [Digoxigenin, reference compound], the “Cyprid Settlement (ED50)” value with cyprid stage larvae is listed as > 50,000 ng/L. Moreover, the “Naupliar Toxicity (LD50)” value with nauplius stage larvae is on record as 3,720 ng/L.
`C[C@H]1O[C@@H](O[C@H]2[C@@H](O)C[C@H](O[C@H]3[C@@H](O)C[C@H](O[C@H]4CC[C@@]5(C)[C@H](CC[C@@H]6[C@@H]5C[C@@H](O)[C@]5(C)[C@@H](C7=CC(=O)OC7)CC[C@]65O)C4)O[C@@H]3C)O[C@@H]2C)C[C@H](O)[C@@H]1O` [Digoxin, reference compound]: the “Cyprid Settlement (ED50)” value in the data set on cyprid stage larvae is 6,300 ng/L. In addition, in the data set with nauplius stage larvae, the “Naupliar Toxicity (LD50)” value is listed as 5,450 ng/L.
